pKi: −log10 of the molar value.
molecular target: hCB1R (Homo sapiens, UniProt P21554); experiment: Binding to the CB1 receptor ([3H]-SR141716A displacement); details: not given
Description: Binding to the CB1 Receptor:
Test compounds: The compounds (3 μl, 10 mM, 100% DMSO), pipetted into 96-well PP microtiter plates, were diluted with 27 μl of 100% DMSO (dimethyl sulfoxide). Proceeding from this solution, further 3-fold dilution steps were undertaken by transferring 10 μl in each case to a new PP microtiter plate and adding a further 20 μl of 100% DMSO. In each case 6 μl of these solutions were transferred into new 96-well PP microtiter plates and made up with 144 μl of assay buffer. The end concentrations ranged from 10 μM to 0.005 μM. Negative control: AM 251, dissolved in assay buffer with 1% DMSO, was added to the dilution series in the microtiter plates as a control. The end concentration was 1 μM. Blank control: assay buffer with 1% DMSO was added to the dilution series of the microtiter plates as a blank control.
Summary of the Assay Parameters:
High control: ^3H binding without addition of the compound
Low control: ^3H binding in the presence of 1 μM AM 251
The values were calculated using the corrected raw data.
The values reported were obtained as average values of a double determination. The IC50 values were calculated from the measurements with the program Xlfit, formula 205. Ki values were obtained from the IC50 and Kd values utilizing the Cheng-Prusoff equation: […]
Literature: Cheng, Y.-C., and Prusoff, W. H. (1973) Biochem. Pharmacol 22, 3099-3108

Sequence of hCB1R (P21554 whole entry): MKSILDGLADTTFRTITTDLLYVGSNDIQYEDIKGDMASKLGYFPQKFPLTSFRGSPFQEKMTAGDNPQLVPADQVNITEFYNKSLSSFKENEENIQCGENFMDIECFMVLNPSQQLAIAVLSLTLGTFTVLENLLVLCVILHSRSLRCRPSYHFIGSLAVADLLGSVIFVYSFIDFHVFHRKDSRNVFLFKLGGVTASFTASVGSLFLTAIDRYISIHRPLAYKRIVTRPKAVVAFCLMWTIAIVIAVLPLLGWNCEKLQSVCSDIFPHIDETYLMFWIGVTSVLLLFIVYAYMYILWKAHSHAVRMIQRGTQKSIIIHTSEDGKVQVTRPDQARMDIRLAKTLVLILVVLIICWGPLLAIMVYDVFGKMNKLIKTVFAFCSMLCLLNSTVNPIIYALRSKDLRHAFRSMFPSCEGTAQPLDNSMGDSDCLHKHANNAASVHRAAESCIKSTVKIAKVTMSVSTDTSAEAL

| SMILES | pKi |
| --- | --- |
| CC1(C)C(=O)N(c2ccc(C#N)c(C(F)(F)F)c2)C(=O)N1Cc1ccccc1Nc1cccc(S(N)(=O)=O)c1 [Example 153, 3-{2-[3-(4-Cyano-3-trifluoromethylphenyl)-5,5-dimethyl-2,4-dioxoimidazolidin-1-ylmethyl]phenylamino}benzenesulfonamide] | 7.70 |
| CC1(C)C(=O)N(c2ccc(C#N)c(C(F)(F)F)c2)C(=O)N1Cc1cc(F)ccc1Nc1ccccc1 [Example 18, 4-[3-(5-fluoro-2-phenylaminobenzyl)-4,4-dimethyl-2,5-dioxoimidazolidin-1-yl]-2-trifluoromethylbenzonitrile] | 8.30 |
| CC1(C)C(=O)N(c2ccc(C#N)c(C(F)(F)F)c2)C(=O)N1Cc1ccccc1Nc1ccc(C=O)cc1 [Example 120, 4-{3-[2-(4-formylphenylamino)benzyl]-4,4-dimethyl-2,5-dioxoimidazolidin-1-yl}-2-trifluoromethylbenzonitrile] | 8.30 |
| CC1(C)C(=O)N(c2ccc(C#N)c(C(F)(F)F)c2)C(=O)N1Cc1ccccc1Nc1ccncc1 [Example 61, 4-{4,4-Dimethyl-2,5-dioxo-3-[2-(pyridin-4-ylamino)benzyl]imidazolidin-1-yl}-2-trifluoromethylbenzonitrile] | 7.72 |
| CC1(C)C(=O)N(c2ccc(C#N)c(C(F)(F)F)c2)C(=O)N1Cc1ccccc1Nc1ccc(OC(F)(F)F)cc1 [Example 12, 4-{3-[2-(4-trifluoromethoxy-phenylamino)benzyl]-4,4-dimethyl-2,5-dioxoimidazolidin-1-yl}-2-trifluoromethylbenzonitrile] | 9.05 |
| COC(=O)c1cc(Nc2ccccc2CN2C(=O)N(c3ccc(C#N)c(C(F)(F)F)c3)C(=O)C2(C)C)ccc1OC [Example 129, methyl 5-{2-[3-(4-cyano-3-trifluoromethylphenyl)-5,5-dimethyl-2,4-dioxoimidazolidin-1-ylmethyl]phenylamino}-2-methoxybenzoate] | 8.00 |
| CC1(C)C(=O)N(c2ccc(C#N)c(C(F)(F)F)c2)C(=O)N1Cc1cc(F)ccc1Nc1ccc(F)cc1 [Example 15, 4-{3-[5-Fluoro-2-(4-fluorophenylamino)benzyl]-4,4-dimethyl-2,5-dioxoimidazolidin-1-yl}-2-trifluoromethylbenzonitrile] | 8.70 |
| COC(=O)c1ccc(Nc2cc(F)ccc2CN2C(=O)N(c3ccc(C#N)c(C(F)(F)F)c3)C(=O)C2(C)C)cc1 [Example 111, Methyl 4-{2-[3-(4-cyano-3-trifluoromethylphenyl)-5,5-dimethyl-2,4-dioxoimidazolidin-1-ylmethyl]-5-fluorophenylamino}benzoate] | 9.00 |
| CC1(C)C(=O)N(c2ccc(C#N)c(C(F)(F)F)c2)C(=O)N1Cc1ccccc1Nc1ccc(C(=O)NCC(N)=O)cc1 [Example 161, N-carbamoylmethyl-4-{2-[3-(4-cyano-3-trifluoromethylphenyl)-5,5-dimethyl-2,4-dioxoimidazolidin-1-ylmethyl]phenylamino}benzamide] | 8.10 |
| COc1ccc(Nc2ccc(F)cc2)c(CN2C(=O)N(c3ccc(C#N)c(C(F)(F)F)c3)C(=O)C2(C)C)c1 [Example 7, 4-{3-[2-(4-fluorophenylamino)-5-methoxybenzyl]-4,4-dimethyl-2,5-dioxoimidazolidin-1-yl}-2-trifluoromethylbenzonitrile] | 7.82 |
| COc1ccc(Nc2ccc(C(F)(F)F)cc2)c(CN2C(=O)N(c3ccc(C#N)c(C(F)(F)F)c3)C(=O)C2(C)C)c1 [Example 8, 4-{3-[5-methoxy-2-(4-trifluoromethylphenylamino)benzyl]-4,4-dimethyl-2,5-dioxoimidazolidin-1-yl}-2-trifluoromethylbenzonitrile] | 7.82 |
| CC1(C)C(=O)N(c2ccc(C#N)c(C(F)(F)F)c2)C(=O)N1Cc1ccc(C#N)cc1Nc1ccc(C(=O)O)cc1 [Example 132, 4-{5-cyano-2-[3-(4-cyano-3-trifluoromethylphenyl)-5,5-dimethyl-2,4-dioxoimidazolidin-1-ylmethyl]phenylamino}benzoic acid] | 8.22 |
| CC1(C)C(=O)N(c2ccc(C#N)c(C(F)(F)F)c2)C(=O)N1Cc1ccccc1Nc1ccc(C(=O)NCCO)cc1 [Example 149, 4-{2-[3-(4-cyano-3-trifluoromethylphenyl)-5,5-dimethyl-2,4-dioxoimidazolidin-1-ylmethyl]phenylamino}-N-(2-hydroxyethyl)benzamide] | 8.22 |
| CC1(C)C(=O)N(c2ccc(C#N)c(C(F)(F)F)c2)C(=O)N1Cc1ccccc1Nc1ccc(C(=O)NCCCS(C)(=O)=O)cc1 [Example 173, 4-{2-[3-(4-Cyano-3-trifluoromethylphenyl)-5,5-dimethyl-2,4-dioxoimidazolidin-1-ylmethyl]phenylamino}-N-(3-methanesulfonylpropyl)benzamide] | 7.47 |
| CC1(C)C(=O)N(c2ccc(C#N)c(C(F)(F)F)c2)C(=O)N1Cc1ccccc1Nc1ccc(Oc2ccccc2)cc1 [Example 128, 4-{4,4-dimethyl-2,5-dioxo-3-[2-(4-phenoxyphenylamino)benzyl]-imidazolidin-1-yl}-2-trifluoromethylbenzonitrile] | 8.70 |
| CC1(C)C(=O)N(c2ccc(F)c(C(F)(F)F)c2)C(=O)N1Cc1ccccc1Nc1ccc(C#N)cc1 [Example 134, 4-{2-[3-(4-fluoro-3-trifluoromethylphenyl)-5,5-dimethyl-2,4-dioxoimidazolidin-1-ylmethyl]phenylamino}benzonitrile] | 8.40 |
| CC1(C)C(=O)N(c2ccc(C#N)c(C(F)(F)F)c2)C(=O)N1Cc1ccccc1Nc1ccc(S(C)(=O)=O)cc1 [Example 27, 4-{3-[2-(4-methylsulfonylphenylamino)benzyl]-4,4-dimethyl-2,5-dioxoimidazolidin-1-yl}-2-trifluoromethylbenzonitrile] | 7.77 |
| CC1(C)C(=O)N(c2ccc(C#N)c(C(F)(F)F)c2)C(=O)N1Cc1ccccc1Nc1ccc2c(c1)OC(F)(F)O2 [Example 32, 4-{3-[2-(2,2-difluorobenzo[1,3]dioxol-5-ylamino)benzyl]-4,4-dimethyl-2,5-dioxoimidazolidin-1-yl}-2-trifluoromethylbenzonitrile] | 8.52 |

same assay, conditions: CHO-K1/cannabinoid CB1 protein 2 μg/well; [3H]-SR141716A 0.5 nM; Ki from IC50 by Cheng-Prusoff; average of double determination; read-out: hCB1R; binding Ki

| SMILES | pKi |
| --- | --- |
| CC1(C)C(=O)N(c2ccc(F)c(C(F)(F)F)c2)C(=O)N1Cc1ccc(F)cc1Nc1ccc(C(=O)N2CCC(O)CC2)cc1 [Example 171, 1-{4-Fluoro-2-[4-(4-hydroxypiperidine-1-carbonyl)phenylamino]benzyl}-3-(4-fluoro-3-trifluoromethylphenyl)-5,5-dimethylimidazolidine-2,4-dione] | 6.92 |
| COC(=O)c1ccc(Nc2cc(F)ccc2CN2C(=O)N(c3ccc(C#N)c(-c4ccccc4)c3)C(=O)C2(C)C)cc1 [Example 223] | 8.40 |
| CC1(C)C(=O)N(c2ccc(C#N)nc2)C(=O)N1Cc1ccccc1Nc1ccccc1 [Example 69] | 6.95 |
| CC1(C)C(=O)N(c2ccc(C#N)nc2)C(=O)N1Cc1ccccc1Nc1ccc(F)cc1F [Example 70, 5-{3-[2-(2,4-difluorophenylamino)benzyl]-4,4-dimethyl-2,5-dioxoimidazolidin-1-yl}pyridine-2-carbonitrile] | 7.57 |
| COC(=O)c1ccc(Nc2cc(F)ccc2CN2C(=O)N(c3ccnc(C(C)(C)C)c3)C(=O)C2(C)C)cc1 [Example 167, Methyl 4-{2-[3-(2-tert-butylpyridin-4-yl)-5,5-dimethyl-2,4-dioxoimidazolidin-1-ylmethyl]-5-fluorophenylamino}benzoate] | 8.15 |
